US6552022B1, “Benzamide derivatives and their use as ApoB-100 secretion inhibitors” (SmithKline Beecham Corporation, priority 1998, dated 2003)
Values belong to the molecule of their own block, whether it stands above or below them.

How the values were obtained:
[1] = system: apoB-100; assay: Inhibition of apoB-100 secretion by primary human hepatocytes (35S-methionine labelling, SDS PAGE, Phosphorimager); assay type: cell-based; details: 8 hours incubation, tested from 1 μM to 1.6 nM, secretion of radiolabeled apoB-100, untreated cells as controls
Description: The ability of the compounds of the invention to inhibit the production of apoB-100 by human hepatocytes in vitro is determined using primary human hepatocytes as a model system. The specificity of the compounds of the invention is established by comparing the effects on apoB-100, apoprotein A-1, and fibrinogen production. A specificity of at least 100 is preferred.
Primary human hepatocytes were seeded at 50 000 cells/well in 96 well plates. After an overnight adhesion phase, cells were incubated with compounds for 8 hours in RPMI medium containing 1% FCS, 4 μg/ml insulin, 100 nM dexamethasone and 50 μCi/ml ^35S-methionine. […] Production of radiolabeled apoB-100 and apoA-1 (used as a selectivity control) was quantified by analysis of supermatants using SDS AGE and exposure of gels onto Phosphorimager screens. Inhibition of apo-100 and apoA-1 secretion by compounds was calculated taking untreated cells as controls, and IC50 of each compound was determined on both apoproteins.

Structure (SMILES): Cc1ccc(C(=O)Nc2ccc(N3CCN(Cc4cccc(C#N)c4)CC3)cc2)c(-c2ccc(C(C)C)cc2)c1 [Example 2, 4′-Isopropyl-5-methyl-biphenyl-2-carboxylic Acid [4-[4-(3-cyano-benzyl)-piperazin-1-yl]-phenyl]-amide]
IC50 ([1]; Homo sapiens, Hepatocyte, 8 h): 18 nM
melting point: 167 to 169 °C

Structure (SMILES): O=C(Nc1ccc(N2CCN(Cc3ccc[nH]3)CC2)cc1)c1ccccc1-c1ccc(C(F)(F)F)cc1 [Example 62, 4′-Trifluormethyl-biphenyl-2-carboxylic Acid [4-(4-(1H-pyrrol-2-ylmethyl)-piperazin-1-yl)-phenyl)-amide]
IC50 [1]: 10 nM

Structure (SMILES): Cc1cccc(C(=O)Nc2ccc(N3CCN(Cc4cccc(C#N)c4)CC3)cc2)c1-c1ccc(C(C)C)cc1 [Example 4]
IC50 [1]: 12 nM

Structure (SMILES): Cc1ccc(C(=O)Nc2ccc(N3CCN(Cc4cccc(-c5nc(C)no5)c4)CC3)cc2)c(-c2ccc(C(C)C)cc2)c1 [Example 6]
IC50 [1]: 18 nM

Structure (SMILES): COc1cccc(C(=O)Nc2ccc(N3CCN(Cc4cccc(C#N)c4)CC3)cc2)c1-c1ccc(C(C)C)cc1 [Example 3, 4′-Isopropyl-6-methoxy-biphenyl-2-carboxylic Acid [4-[4-(3-cyano-benzyl)-piperazin-1-yl]-phenyl]-amide]
IC50 [1]: 13 nM
IC50 ([1]; Homo sapiens, Hepatocyte, 8 h): 18 nM
melting point: 179 °C

Second part, led by results:

melting point: 196 to 198 °C
Structure (SMILES): Cc1ccc(C(=O)Nc2ccc(N3CCN(Cc4ccc[nH]4)CC3)cc2)c(-c2ccc(C(F)(F)F)cc2)c1 [Example 64, 5-Methyl-4′-trifluoromethyl-biphenyl-2-carboxylic Acid [4-(4-(1H-pyrrol-2-ylmethyl)-piperazin-1-yl)-phenyl]-amide]
IC50 ([1]; Homo sapiens, Hepatocyte, 8 h): 19 nM

melting point: 192 °C
Structure (SMILES): Cc1cccc(C(=O)Nc2ccc(N3CCN(Cc4cccc(C#N)c4)CC3)cc2)c1-c1ccc(C(F)(F)F)cc1 [Example 5, 6-Methyl-4′-trifluoromethyl-biphenyl-2-carboxylic Acid [4-[4-(3-cyano-benzyl)-piperazin-1-yl]-phenyl]-amide]
IC50 ([1]; Homo sapiens, Hepatocyte, 8 h): 15 nM
